Test results from PubChem BioAssay AID1963828 (Molecular Pharmacology Branch, DTP, NCI, 2024).

Test system: 991263-137-R1-J2-PDC complex spheroid viability
Assay: Anticancer human tumor 991263-137-R1-J2-PDC patient-derived colon adenocarcinoma cell line growth inhibition [POLQ]
Settings: for IC50: curve of first compound; for viability, T/C: stronger effect = lower value
Method: Multicellular complex tumor spheroid response to Polymerase (POL) inhibitors (novobiocin, ART-558, RP6685) in combination with a variety of drugs and investigational agents in selected tumor cell lines
The POL inhibitors (novobiocin, ART-558, and RP6685) were evaluated both individually and in combination with standard of care and investigational anticancer small molecules within a complex spheroid model of solid tumors. . Complex spheroids include a stromal component modeled by human endothelial cells (HUVEC) and fibroblasts modeled by human mesenchymal stem cells (MSCs). The concentration ranges selected for each drug and investigational agent were based upon clinically achievable concentrations if the clinical Cmax of the agent was known.
Compounds. The drugs and investigational agents: novobiocin (NSC847541), ART-558 (NSC835418), RP-6685 (NSC848927), peposertib (NSC802822), ceralasertib (NSC780249), elimusertib (NSC800525), camonsertib (NSC841442), AZD-1390 (NSC803789), olaparib (NSC753686), talazoparib (NSC767125), rucaparib (NSC756644), sotorasib (NSC818433), MRTX-1133 (NSC836407), SN-38 (NSC673596), topotecan (NSC609699), epotoside (NSC141540), doxorubicin (NSC123127), gemcitabine (NSC613327), 5-fluorouracil (NSC19893), paclitaxel (NSC125973), vemurafenib (NSC761431), MSA-2 (NSC828583), SN-011 (NSC837082), adavosertib (NSC754352), prexasertib (NSC758257), carboplatin (NSC241240) and oxaliplatin (NSC266046), were obtained from the National Cancer Institute (NCI) Developmental Therapeutics Program Chemical Repository (21). The FDA-approved anticancer drug set is available from the Developmental Therapeutics Program at https://dtp.cancer.gov/organization/dscb/obtaining/. […] The stock solutions were prepared in dimethyl sulfoxide (DMSO, Sigma-Aldrich, St. Louis, MO, cat. D2650), except for the platinum compounds which were prepared in saline (Quality Biological, Gaithersburg, MD, cat. 114-055-101), at 800-fold the tested concentration and stored at -70 degrees C prior to their use. All drugs and investigational agents were tested over a range starting from a high concentration at or near the clinical Cmax and decreasing in half-log increments. If the clinical Cmax for an agent had not been determined, the highest concentration tested was 10 microM, except for SN-38, which was tested at a high concentration of 1 microM.
Cell Culture. All cells were maintained in an incubator at 37 degrees C and 5% CO2 with 95% humidity. The PDC lines were cultured according to standard operating procedures established by the NCI PDMR (https://pdmr.cancer.gov). Table 3 of the manuscript, lists the cell lines along with the number of the three cell types plated to form the mct-spheroids and media for tumor cell growth. After thawing, all PDC lines, except 997537-175-T-J1-PDC and 415267-285-R-J2-PDC, were cultured in Matrigel-coated flasks prepared with a working solution of 1X Ham's F-12 nutrient mix, without supplementation (Thermo Fisher Scientific, cat. 11765054), 100 U/mL penicillin-streptomycin (Thermo Fisher Scientific, cat. 15140122), and 2.5% Matrigel (Corning Inc., Corning, NY, cat. 354248) for the first three passages. The two PDC lines 997537-175-T-J1-PDC and 415267-285-R-J2-PDC were cultured on uncoated flasks. The 857933-349-R-J2-PDC line was cultured in 6C/Colon 1B media containing advanced DMEM/F-12 (Thermo Fisher Scientific, cat. 12634028), 10 mM HEPES (Thermo Fisher Scientific, cat. 15630080), 1X GlutaMAX supplement (Thermo Fisher Scientific, cat. 35050061), 0.1 mg/mL primocin (InvivoGen, San Diego, CA, cat. ant-pm-2), 10% defined fetal bovine serum, heat inactivated (HyClone Laboratories Inc., Logan, UT, cat. SH30070.03HI), 50% L-WRN conditioned media (ATCC, cat. CRL-3276), 1.25 mM N-Acetyl-L-cysteine (Sigma-Aldrich, cat. A9165), 10 mM nicotinamide (Sigma-Aldrich, cat. N0636), 1X B-27 supplement (Thermo Fisher Scientific, cat. 17504044), 1X N-2 supplement (Thermo Fisher Scientific, cat. […]

[1] = second compound 0.0316 µM, first compound 0.0316 µM
[2] = second compound 0.0316 µM, first compound 0.1 µM
[3] = second compound 0.0316 µM, first compound 0.316 µM
[4] = second compound 0.0316 µM, first compound 1 µM
[5] = second compound 0.1 µM, first compound 0.0316 µM
[6] = second compound 0.1 µM, first compound 0.1 µM
[7] = second compound 0.1 µM, first compound 0.316 µM
[8] = second compound 0.1 µM, first compound 1 µM
[9] = second compound 0.316 µM, first compound 0.0316 µM
[10] = second compound 0.316 µM, first compound 0.1 µM
[11] = second compound 0.316 µM, first compound 0.316 µM
[12] = second compound 0.316 µM, first compound 1 µM
[13] = second compound 1 µM, first compound 0.0316 µM
[14] = second compound 1 µM, first compound 0.1 µM
[15] = second compound 1 µM, first compound 0.316 µM
[16] = second compound 1 µM, first compound 1 µM
[17] = second compound 3.16 µM, first compound 0.0316 µM
[18] = second compound 3.16 µM, first compound 0.1 µM
[19] = second compound 3.16 µM, first compound 0.316 µM
[20] = second compound 3.16 µM, first compound 1 µM
[21] = second compound 10 µM, first compound 0.0316 µM
[22] = second compound 10 µM, first compound 0.1 µM
[23] = second compound 10 µM, first compound 0.316 µM
[24] = second compound 10 µM, first compound 1 µM
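Further: spheroids exposed to compounds for 7 days before readout.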
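Wherever viability, T/C is given: 100% = DMSO vehicle control viability.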

`C=CCn1c(=O)c2cnc(Nc3ccc(N4CCN(C)CC4)cc3)nc2n1-c1cccc(C(C)(C)O)n1` + COC1C(OC(N)=O)C(O)C(Oc2ccc3c(O)c(NC(=O)c4ccc(O)c(CC=C(C)C)c4)c(=O)oc3c2C)OC1(C)C gave an IC50 (second compound 0.0316 µM) greater than 1 µM, an IC50 (second compound 0.1 µM) greater than 1 µM and an IC50 (second compound 0.316 µM) greater than 1 µM. For the same compound, the IC50 (second compound 1 µM) was greater than 1 µM, the IC50 (second compound 3.16 µM) was greater than 1 µM and the IC50 (second compound 10 µM) was greater than 1 µM. The viability, T/C (second compound 0.0316 µM, first compound 0.00316 µM) was 116%, the viability, T/C (second compound 0.0316 µM, first compound 0.01 µM) was 115% and the viability, T/C [1] was 105%. For the same compound, the viability, T/C [2] was 107%, the viability, T/C [3] was 95.6% and the viability, T/C [4] was 101%. It also gave a viability, T/C (second compound 0.1 µM, first compound 0.00316 µM) of 94.2%, a viability, T/C (second compound 0.1 µM, first compound 0.01 µM) of 109% and a viability, T/C [5] of 91.1%. It also gave a viability, T/C [6] of 97%, a viability, T/C [7] of 108% and a viability, T/C [8] of 77.4%. It also gave a viability, T/C (second compound 0.316 µM, first compound 0.00316 µM) of 102%, a viability, T/C (second compound 0.316 µM, first compound 0.01 µM) of 110% and a viability, T/C [9] of 92.6%. For the same compound, the viability, T/C [10] was 97.8%, the viability, T/C [11] was 100% and the viability, T/C [12] was 108%. It also gave a viability, T/C (second compound 1 µM, first compound 0.00316 µM) of 85.1%, a viability, T/C (second compound 1 µM, first compound 0.01 µM) of 100% and a viability, T/C [13] of 96.8%. The viability, T/C [14] was 98.7%, the viability, T/C [15] was 104% and the viability, T/C [16] was 98%. The viability, T/C (second compound 3.16 µM, first compound 0.00316 µM) was 111%, the viability, T/C (second compound 3.16 µM, first compound 0.01 µM) was 81.2% and the viability, T/C [17] was 119%. It also gave a viability, T/C [18] of 105%, a viability, T/C [19] of 115% and a viability, T/C [20] of 93.4%. For the same compound, the viability, T/C (second compound 10 µM, first compound 0.00316 µM) was 98.1%, the viability, T/C (second compound 10 µM, first compound 0.01 µM) was 107% and the viability, T/C [21] was 102%. The viability, T/C [22] was 92.5%, the viability, T/C [23] was 110% and the viability, T/C [24] was 105%.

`CC(C)n1c(=O)n(C)c2cnc3cc(F)c(-c4ccc(OCCCN5CCCCC5)nc4)cc3c21` + COC1C(OC(N)=O)C(O)C(Oc2ccc3c(O)c(NC(=O)c4ccc(O)c(CC=C(C)C)c4)c(=O)oc3c2C)OC1(C)C gave an IC50 (second compound 0.0316 µM) greater than 10 µM, an IC50 (second compound 0.1 µM) greater than 10 µM and an IC50 (second compound 0.316 µM) greater than 10 µM. It also gave an IC50 (second compound 1 µM) greater than 10 µM, an IC50 (second compound 3.16 µM) greater than 10 µM and an IC50 (second compound 10 µM) greater than 10 µM. The viability, T/C [1] was 107%, the viability, T/C [2] was 109% and the viability, T/C [3] was 118%. The viability, T/C [4] was 101%, the viability, T/C (second compound 0.0316 µM, first compound 3.16 µM) was 103% and the viability, T/C (second compound 0.0316 µM, first compound 10 µM) was 82.7%. The viability, T/C [5] was 91.5%, the viability, T/C [6] was 106% and the viability, T/C [7] was 116%. It also gave a viability, T/C [8] of 99%, a viability, T/C (second compound 0.1 µM, first compound 3.16 µM) of 102% and a viability, T/C (second compound 0.1 µM, first compound 10 µM) of 82.1%. It also gave a viability, T/C [9] of 86.3%, a viability, T/C [10] of 114% and a viability, T/C [11] of 117%. The viability, T/C [12] was 96.9%, the viability, T/C (second compound 0.316 µM, first compound 3.16 µM) was 106% and the viability, T/C (second compound 0.316 µM, first compound 10 µM) was 96.2%. It also gave a viability, T/C [13] of 109%, a viability, T/C [14] of 106% and a viability, T/C [15] of 112%. The viability, T/C [16] was 83.5%, the viability, T/C (second compound 1 µM, first compound 3.16 µM) was 109% and the viability, T/C (second compound 1 µM, first compound 10 µM) was 90%. The viability, T/C [17] was 111%, the viability, T/C [18] was 116% and the viability, T/C [19] was 110%. It also gave a viability, T/C [20] of 108%, a viability, T/C (second compound 3.16 µM, first compound 3.16 µM) of 95.3% and a viability, T/C (second compound 3.16 µM, first compound 10 µM) of 96.1%. It also gave a viability, T/C [21] of 95.1%, a viability, T/C [22] of 119% and a viability, T/C [23] of 117%. It also gave a viability, T/C [24] of 114%, a viability, T/C (second compound 10 µM, first compound 3.16 µM) of 107% and a viability, T/C (second compound 10 µM, first compound 10 µM) of 96.6%.
